Source: patent US20240190838A1, “LZK-TARGETING DEGRADERS AND METHODS OF USE” (The U.S.A., as represented by the Secretary, Department of …, priority 2020, published 2024)

Molecular target: T1, LZK^Q240S (Homo sapiens, UniProt O43283, Q240S)
T1 construct: FLAG (transient 293T overexpression vector); expressed in transfected cells
T1 sequence (O43283 1-966 Q240S): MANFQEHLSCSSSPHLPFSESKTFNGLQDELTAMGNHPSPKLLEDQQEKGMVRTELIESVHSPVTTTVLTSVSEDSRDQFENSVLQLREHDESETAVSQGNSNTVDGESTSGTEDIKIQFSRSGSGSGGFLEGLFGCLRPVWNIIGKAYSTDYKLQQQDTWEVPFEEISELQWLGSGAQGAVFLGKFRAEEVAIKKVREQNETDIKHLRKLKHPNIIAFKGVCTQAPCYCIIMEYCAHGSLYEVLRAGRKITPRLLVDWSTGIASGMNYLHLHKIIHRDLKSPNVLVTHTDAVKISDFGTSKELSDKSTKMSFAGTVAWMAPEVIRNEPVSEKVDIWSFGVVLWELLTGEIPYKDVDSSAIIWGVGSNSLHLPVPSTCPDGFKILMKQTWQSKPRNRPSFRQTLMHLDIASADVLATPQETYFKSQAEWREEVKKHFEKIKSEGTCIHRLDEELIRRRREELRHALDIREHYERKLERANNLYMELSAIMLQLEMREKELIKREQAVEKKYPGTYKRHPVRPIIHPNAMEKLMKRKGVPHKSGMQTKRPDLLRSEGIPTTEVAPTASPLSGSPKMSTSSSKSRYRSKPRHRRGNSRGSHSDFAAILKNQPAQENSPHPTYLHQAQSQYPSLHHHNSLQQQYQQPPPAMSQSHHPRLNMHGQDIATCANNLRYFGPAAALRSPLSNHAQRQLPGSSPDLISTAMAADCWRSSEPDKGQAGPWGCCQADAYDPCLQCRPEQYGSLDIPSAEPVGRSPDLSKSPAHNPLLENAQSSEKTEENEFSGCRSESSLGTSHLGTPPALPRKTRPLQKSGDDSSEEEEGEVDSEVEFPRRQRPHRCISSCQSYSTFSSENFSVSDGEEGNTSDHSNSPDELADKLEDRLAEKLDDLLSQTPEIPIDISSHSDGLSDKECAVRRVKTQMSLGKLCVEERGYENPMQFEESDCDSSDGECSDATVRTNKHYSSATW
Assay: JNK signaling with drug-resistant mutant LZK Q240S
Type: cell-based
Conditions: drug-resistant mutant expression
Procedure: The ViraPower HiPerform T-REx Gateway Expression System (Invitrogen) was used to generate cells with tetracycline-inducible expression of LZK. […] Cell lines were generated by antibiotic selection (blasticidin [Gibco] and geneticin [Gibco]). Doxycycline (Sigma-Aldrich) was used at 1 μg/mL to induce LZK expression.
Protein concentrations were determined from the cell lysate by using 660 nm Protein Assay Reagent (Pierce).

- JNK signaling / catalytic activity of LZK Q240S in presence of inhibitor: rescued JNK signaling
Compound: CC(=O)N1CCC(c2cc(Nc3cc(C#N)ccn3)nc(N3CCC(F)(F)C3)c2)CC1 [LZK inhibitor 2]
